The text below walks through data of patent US11442059B2, “Method for treating a chronic itch condition by administering small molecule MrgprX4 antagonists” (The Johns Hopkins University, priority 2017, dated 2022).

One experiment concerns the target T1, MRGPRX2 (Homo sapiens, UniProt Q96LB1).
T1 construct: expressed in transfected cells; host or cells: HEK293 (MRGPRX2-HEK) membranes on silica
T1 sequence (Q96LB1 1-330): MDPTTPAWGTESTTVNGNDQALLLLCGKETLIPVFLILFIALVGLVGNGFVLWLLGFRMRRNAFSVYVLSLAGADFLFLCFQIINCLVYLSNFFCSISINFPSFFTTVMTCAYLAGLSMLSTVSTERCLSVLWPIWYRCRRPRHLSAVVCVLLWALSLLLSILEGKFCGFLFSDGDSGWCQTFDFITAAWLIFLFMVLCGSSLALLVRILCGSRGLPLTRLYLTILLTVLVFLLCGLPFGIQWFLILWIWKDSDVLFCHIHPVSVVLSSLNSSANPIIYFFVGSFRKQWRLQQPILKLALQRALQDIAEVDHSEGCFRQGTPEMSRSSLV
The experiment is described as follows: Cell membrane chromatography, MRGPRX2/CMC column. The experiment is classed as binding. The following applies: affinity chromatography elution profile. On the procedure: CMC analysis was performed with a Shimadzu LC-2010A apparatus that consisted of pumps, degasser, autosampler, column oven, and a diode-array detector (Shimadzu, Kyoto, Japan). The data were acquired by the Lab-solution program (Shimadzu). The mobile phase consisted of phosphate-buffered saline (PBS; 5 mM, pH 7.4) and was delivered at a flow rate of 0.2 ml/min. The stock solutions (100 μM) of lamotrigine were prepared by separately dissolving the standard drugs in methanol. Standard solutions at various concentrations were prepared by diluting the stock solutions with the mobile phase. The MRGPRX2/CMC and MRGPRX4/CMC column was prepared as follows. Briefly, MRGPRX4-expressed HEK293 cells (1×10^8) were harvested and centrifuged (1000 g, 10 min, at 4° C.). Cells were washed with physiological saline (pH=7.4) by centrifugation at 1000 g for 10 min at 4° C. Cells were lysed by ultrasonic in Tris-HCl (50 mM, pH=7.4) for 30 min and centrifuged twice at 1000 g for 10 min at 4° C. The collected supernatant was then centrifuged at 12000 g for 20 min at 4° C. and the pellet was resuspended in 5 ml ice-cold physiological saline solution. […] The cell membrane suspension was homogenized/adsorbed with the activated silica under vacuum with agitation at 4° C. overnight. […]

The next experiment deals with MRGPRX4 (Homo sapiens, UniProt Q96LA9). The experiment is described as follows: Cell membrane chromatography, MRGPRX4/CMC column. Also on record: expressed in transfected cells; whole cells or crude membrane fraction. The experiment is classed as binding. The procedure:
CMC analysis was performed with a Shimadzu LC-2010A apparatus that consisted of pumps, degasser, autosampler, column oven, and a diode-array detector (Shimadzu, Kyoto, Japan). The data were acquired by the Lab-solution program (Shimadzu). The mobile phase consisted of phosphate-buffered saline (PBS; 5 mM, pH 7.4) and was delivered at a flow rate of 0.2 ml/min. The stock solutions (100 μM) of lamotrigine were prepared by separately dissolving the standard drugs in methanol. Standard solutions at various concentrations were prepared by diluting the stock solutions with the mobile phase. The MRGPRX2/CMC and MRGPRX4/CMC column was prepared as follows. Briefly, MRGPRX4-expressed HEK293 cells (1×10^8) were harvested and centrifuged (1000 g, 10 min, at 4° C.). Cells were washed with physiological saline (pH=7.4) by centrifugation at 1000 g for 10 min at 4° C. […] KD value of lamotrigine was determined by means of the MRGPRX4/CMC system as follows. […] This mobile phase with different concentrations of each compound was separately pumped through the MRGPRX4/CMC column at a flow rate of 0.2 ml min^−1 under the gradient program and the breakthrough curves of the compound with different concentrations were recorded. […] Moreover, KD could be determined by calculating the ratio of the intercept to the slope, and [R]s was obtained from the inverse of the intercept.

Structures are written as SMILES.

MRGPRX4, sequence (Q96LA9 whole entry): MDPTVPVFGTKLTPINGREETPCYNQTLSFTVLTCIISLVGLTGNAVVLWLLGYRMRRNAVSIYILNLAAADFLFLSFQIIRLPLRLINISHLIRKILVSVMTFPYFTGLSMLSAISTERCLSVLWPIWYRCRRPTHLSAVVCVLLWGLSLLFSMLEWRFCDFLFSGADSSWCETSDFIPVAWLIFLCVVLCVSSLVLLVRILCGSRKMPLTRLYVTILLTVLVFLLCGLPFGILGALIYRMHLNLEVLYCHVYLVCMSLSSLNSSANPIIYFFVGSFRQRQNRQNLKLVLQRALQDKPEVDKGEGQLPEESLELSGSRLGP

`Nc1nnc(-c2cccc(Cl)c2Cl)c(N)n1` [LTG, Lamotrigine]: the “retention on MRGPRX2/CMC column” value on MRGPRX2 is “cannot retain”. Also, the “Retention time on MRGPRX4/CMC column” value on MRGPRX4 (affinity chromatography elution profile) is on record as 16.7 min. On MRGPRX4 (regression 1/[LR]s versus 1/[L]m, n=5, read-out: KD (MRGPRX4/CMC breakthrough curves)), the Kd came to 417 nM.
